Target: Dipeptidyl peptidase 4 (Rattus norvegicus, UniProt P14740)
Conditions: po, read-out: Reduction
Description: Ex vivo DDP-IV inhibition after a 30 mpk oral administration to healthy rats compared to vehicle in an oral glucose tolerance test (OGTT)

Chain of Dipeptidyl peptidase 4 (P14740 whole entry): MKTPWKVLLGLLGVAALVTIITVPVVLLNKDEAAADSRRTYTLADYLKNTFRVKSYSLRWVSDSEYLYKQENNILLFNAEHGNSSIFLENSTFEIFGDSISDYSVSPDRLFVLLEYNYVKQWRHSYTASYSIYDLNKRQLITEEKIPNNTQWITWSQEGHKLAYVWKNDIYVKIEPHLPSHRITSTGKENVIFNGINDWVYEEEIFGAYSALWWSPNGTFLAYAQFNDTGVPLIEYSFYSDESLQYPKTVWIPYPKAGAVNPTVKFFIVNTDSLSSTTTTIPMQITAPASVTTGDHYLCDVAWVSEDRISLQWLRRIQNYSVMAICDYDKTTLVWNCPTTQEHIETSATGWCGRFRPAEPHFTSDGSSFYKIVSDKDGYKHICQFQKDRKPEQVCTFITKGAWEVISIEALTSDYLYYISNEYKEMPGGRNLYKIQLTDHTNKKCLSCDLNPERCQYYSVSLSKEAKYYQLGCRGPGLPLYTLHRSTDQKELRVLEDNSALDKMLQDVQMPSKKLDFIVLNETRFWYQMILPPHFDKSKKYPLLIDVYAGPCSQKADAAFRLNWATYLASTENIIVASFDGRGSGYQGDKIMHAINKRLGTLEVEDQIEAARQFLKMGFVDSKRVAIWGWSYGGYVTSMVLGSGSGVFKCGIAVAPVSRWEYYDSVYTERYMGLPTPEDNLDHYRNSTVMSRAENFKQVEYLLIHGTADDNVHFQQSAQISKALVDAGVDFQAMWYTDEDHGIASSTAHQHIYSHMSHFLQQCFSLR

- inhibition at 30 mg/kg: 24%
Structure (SMILES): NC(=O)c1ccc(OCC2(NCC(=O)c3ccsc3)CCCC2)cc1

Source: ChEMBL document CHEMBL1137594, “Discovery of non-covalent dipeptidyl peptidase IV inhibitors which induce a conformational change in the active site” (Bioorg Med Chem Lett, 2007)
